Results published in patent publication US20210261583A1, “Synthetic Cytotoxic Molecules, Drugs, Methods of Their Synthesis and Methods of Treatment” (The Regents of the University of California, priority 2018, published 2021).
Where a name gives a salt, the structure may show the parent alone. Read-outs that look alike come from different tables or passages of the source.

Columns and labels:
cancer cells = test: Cytotoxicity (IC50); format: cell-based
CD98 = test: Nutrient transporter (CD98) down-regulation; format: cell-based; conditions: for activity in downregulation tests: compared to hydroxy pyrrolidine ketone progenitors 20, 21, 23 and 24
vacuolation = test: Vacuolation score; format: cell-based; conditions: for activity in vacuolation tests: compared to hydroxy pyrrolidine ketone progenitors 20, 21, 23 and 24
[1] = Racemization/epimerization, deuterium incorporation and cyclization in protic solvents; format: physicochemical; conditions: for racemization / epimerization after N-Boc deprotection: dissolved in protic solvents such as water and MeOH, gives 1:1 mixture of enantiomers or epimers; for time to complete incorporation of deuterium at C-2: D2O, room temperature
Procedure: In the presence of D2O at room temperature, deuterium was incorporated at C-2 confirming a fast enolization followed by β-elimination and ring closure. […] The incorporation of deuterium is complete in 30 min at pH=10, and in 3 hours at pH=7.
It was therefore decided to further investigate this new structural analog and we prepared the bicyclic enantiopure pyrrolizidine 17 bearing the aryloctyl appendage on C-3, in analogy with our lead compound 3 as well as the monocyclic variant 18, to check the effect of the substituent position and the nature of the azacycles (FIG. 7).

[2] = at concentration near IC50 / where it kills 50% of cells

| SMILES | IC50 (cancer cells) [µM] | inhibition at 2.5 µM (CD98; 2.5 μM) [%] | inhibition at 10 µM (CD98; 10 μM) [%] | inhibition at 40 µM (CD98; 40 μM) [%] | Vacuolation score (vacuolation; 2.5 μM) | Vacuolation score (vacuolation; 10 μM) | further results |
| --- | --- | --- | --- | --- | --- | --- | --- |
| CCCCCCCCc1ccc(CC(=O)[C@@H]2C[C@@H](O)CN2)cc1.Cl [Compound 23, (2S,4R)-4-Hydroxy-2-(2-(4-octylphenyl)acetyl)pyrrolidin-1-ium chloride] | 18.6 | 13 | 23 | 59 | 0 | 0 | – |
| CCCCCCCCc1ccc([C@H]2CCN[C@@H]2CO)cc1.Cl [Compound 3, reference compound] | 2.1 | – | – | – | – | – | % CD98 down-regulation (CD98; 2.5 μM): 42%; % CD98 down-regulation (CD98; 10 μM): 66% |
| CCCCCCCCc1ccc(C(=O)C[C@@H]2C[C@@H](O)CN2)cc1.Cl [Compound 11, (2S,4R)-4-Hydroxy-2-(2-(4-octylphenyl)-2-oxoethyl)pyrrolidin-1-ium chloride] | 2.1 | 22 | 46 | – | – | – | racemization / epimerization after N-Boc deprotection [1]: prone to racemization and epimerization |
| CCCCCCCCc1ccc(C(=O)CC[C@H]2C[C@H](CO)CN2)cc1.Cl [Compound 13] | – | – | – | – | 0 | – | % CD98 down-regulation (CD98; 2.5 μM): 8%; % CD98 down-regulation (CD98; 10 μM): 46% |
| CCCCCCCCc1ccc(C(C[C@@H]2CCCN2)OC)cc1.Cl (single isomer, unassigned) [Compound 10, (2S)-2-(2-Methoxy-2-(4-octylphenyl)ethyl)pyrrolidine hydrochloride] | – | – | – | – | 0 | – | – |
| CCCCCCCCc1ccc(CC(O)[C@H]2C[C@H](O)CN2)cc1.Cl (stereo partly drawn) [Compound 26, (2R,4S)-4-Hydroxy-2-(1-hydroxy-2-(4-octylphenyl)ethyl)pyrrolidin-1-ium chloride] | 1.8 | 9 | 62 | – | 0 | – | nutrient transporter down-regulation (CD98; [2]): does not down-regulate nutrient transporter proteins; vacuolation (vacuolation; [2]): does not down-regulate nutrient transporter proteins or vacuolate |
| CCCCCCCCc1ccc(CC(=O)[C@@H]2C[C@@H](OP(=O)(O)O)CN2)cc1.Cl [Compound 31, (2S,4R)-2-(2-(4-Octylphenyl)acetyl)-4-(phosphonooxy)pyrrolidin-1-ium chloride] | 25 | – | 3 | 0 | – | 0 | activity in downregulation tests (CD98): totally inactive; Vacuolation score (vacuolation; 40 μM): 0; activity in vacuolation tests (vacuolation): totally inactive |
| CCCCCCCCc1ccc(CC(O)[C@@H]2C[C@@H](O)CN2)cc1 (stereo partly drawn) [Compound 25, (2S,4R)-4-Hydroxy-2-(1-hydroxy-2-(4-octylphenyl)ethyl)pyrrolidin-1-ium chloride] | 3 | 19 | 62 | – | – | – | – |
| CCCCCCCCc1ccc(C(=O)[C@H]2C[C@H](O)CN2)cc1.Cl [Compound 21, (2R,4S)-4-Hydroxy-2-(4-octylbenzoyl)pyrrolidin-1-ium chloride] | 15.3 | 12 | 51 | 41 | 0 | – | vacuolation (in words) (vacuolation; 10 μM): reached maximum vacuolation |
| CCCCCCCCc1ccc(C(=O)C[C@@H]2CCCN2)cc1.Cl [Compound 8, (S)-1-(4-Octylphenyl)-2-(pyrrolidin-2-yl)ethan-1-one hydrochloride] | 2.5 | 78 | 57 | – | – | – | racemization / epimerization after N-Boc deprotection [1]: prone to racemization and epimerization |
| CCCCCCCCc1ccc(C(=O)[C@@H]2C[C@@H](OP(=O)(O)O)CN2)cc1.Cl [Compound 30, (2S,4R)-2-(4-Octylbenzoyl)-4-(phosphonooxy)pyrrolidin-1-ium chloride] | 12.8 | – | – | – | 0 | 0 | % CD98 down-regulation (CD98; 10 μM): −9%; % CD98 down-regulation (CD98; 40 μM): −0%; activity in downregulation tests (CD98): totally inactive; Vacuolation score (vacuolation; 40 μM): 0; activity in vacuolation tests (vacuolation): totally inactive |
| CCCCCCCCc1ccc(C(C[C@@H]2CCCN2)OC)cc1.Cl (single isomer, unassigned) [Compound 10, hydrochloride] | 3 | 15 | 58 | – | – | – | – |
| CCCCCCCCc1ccc(C(=O)[C@@H]2CCCN2)cc1.Cl [Compound 19, (S)-2-(4-Octylbenzoyl)pyrrolidin-1-ium chloride] | – | -21 | -4 | 33 | 0 | 0 | – |
| CCCCCCCCc1ccc(C(=O)C[C@H]2C[C@H](CO)CN2)cc1.Cl (mixture of isomers) [Compound 12, 2-((2R,4S)-4-(Hydroxymethyl)pyrrolidin-2-yl)-1-(4-octylphenyl)ethan-1-one hydrochloride] | 2 | 44 | 50 | – | – | – | time to complete incorporation of deuterium at C-2 ([1]; pH=7): 3 h; time to complete incorporation of deuterium at C-2 ([1]; pH=10): 0.5 h; racemization / epimerization after N-Boc deprotection [1]: prone to racemization and epimerization; stability to epimerization ([1]; pH≤3 in H2O): stable only in very acidic conditions |
| CCCCCCCCc1ccc(C(=O)[C@@H]2C[C@@H](O)CN2)cc1.Cl [Compound 20, (2S,4R)-4-Hydroxy-2-(4-octylbenzoyl)pyrrolidin-1-ium chloride] | 28.1 | 2 | 9 | 48 | 0 | – | – |
| CCCCCCCCc1ccc(CC(=O)[C@H]2C[C@H](O)CN2)cc1.Cl [Compound 24, (2R,4S)-4-Hydroxy-2-(2-(4-octylphenyl)acetyl)pyrrolidin-1-ium chloride] | 17.1 | 11 | 16 | 54 | 0 | 0 | – |
| CCCCCCCCc1ccc([C@@H]2CCC3C[C@H](CO)CN32)cc1.Cl (stereo partly drawn) [Compound 14, ((2S,5S)-5-(4-Octylphenyl)hexahydro-1H-pyrrolizin-2-yl)methanol hydrochloride] | 12.4 | 0 | 32 | 68 | 0 | 0 | IC50 (cancer cells; hydrochloride): 12.2 µM |
| CCCCCCCCc1ccc(C(=O)CC[C@H]2C[C@H](CO)CN2)cc1.Cl [Compound 13, 3-(2S,4S)-4-(Hydroxymethyl)pyrrolidin-2-yl)-1-(4-octylphenyl)propan-1-one hydrochloride] | 4 | – | – | – | – | – | – |
| CCCCCCCCc1ccc(C(=O)[C@@H]2C[C@@H](OP(=O)(O)O)CN2)cc1.Cl [Compound 29, (2S,4R)-2-(4-Octylbenzoyl)-4-(phosphonooxy)pyrrolidin-1-ium chloride] | 12.9 | – | – | – | 0 | 0 | % CD98 down-regulation (CD98; 10 μM): 3%; % CD98 down-regulation (CD98; 40 μM): −8%; activity in downregulation tests (CD98): totally inactive; Vacuolation score (vacuolation; 40 μM): 0; activity in vacuolation tests (vacuolation): totally inactive |
| CCCCCCCCc1ccc(C(=O)[C@H]2C[C@H](CO)CN2)cc1.Cl [Compound 22, ((2R,4S)-4-(Hydroxymethyl)pyrrolidin-2-yl)(4-octylphenyl)methanone hydrochloride] | 19.6 | 0 | 19 | 61 | 0 | 0 | – |
| CCCCCCCCc1ccc(C(=O)CC[C@@H]2C[C@@H](O)CN2)cc1 [Compound 15, (2R,4R)-4-Hydroxy-2-(3-(4-octylphenyl)-3-oxopropyl)pyrrolidin-1-ium chloride] | 2.1 | 15 | 52 | – | – | – | – |
| CCCCCCCCc1ccc(CC(=O)[C@H]2C[C@H](OP(=O)(O)O)CN2)cc1.Cl [Compound 32, (2R,4S)-2-(2-(4-Octylphenyl)acetyl)-4-(phosphonooxy)pyrrolidin-1-ium chloride] | 25.3 | – | 5 | 8 | – | 0 | activity in downregulation tests (CD98): totally inactive; Vacuolation score (vacuolation; 40 μM): 0; activity in vacuolation tests (vacuolation): totally inactive |
| CCCCCCCCc1ccc(C[C@@H]2C[C@@H](O)CN2)cc1 [Compound 16, (3R,5R)-5-(4-Octylbenzyl)pyrrolidin-3-ol] | 2.2 | 40 | 63 | – | – | – | – |
| CCCCCCCCc1ccc(CC[C@@H]2CCCN2)cc1 [Compound 9, (R)-2-(4-Octylphenethyl)pyrrolidine hydrochloride] | 2.8 | 41 | 63 | – | – | – | – |
